pKi: −log10 of the molar value. Where a SMILES comes first, the peptide text is derived from it. [ ]: non-standard residue; d: D form. pGlu = O=C1CC[C@@H](C(=O)O)N1
Molecular target: T1, TRH-DE (Sus scrofa, UniProt A0A287AP33)
T1 construct: The inventor purified TRH-DE from porcine brain according to purification procedures previously published by Dr. K. Bauer; from tissue; host or cells: porcine brain (TRH-DE); bovine kidney (DPP-IV, gift from Dr. C. H. Williams)
Assay: continuous coupled fluorometric TRH-DE assay (TRHAMC substrate, DPP-IV coupling enzyme)
Assay type: biochemical, porcine
Conditions: for pKi: non-linear regression, five TRHAMC concentrations and at least three peptide concentrations, mean±S.D. (n=3)
Procedure: The inventor purified TRH-DE from porcine brain according to purification procedures previously published by Dr. K. Bauer, (Max-Planck-Institut, Hannover, Germany) (1). TRH-DE was purified almost 20,000 fold. […] Dipeptidyl peptidase IV (DPP-IV) (EC 3.4.14.5), purified from bovine kidney (7.7 mg ml^−1, specific activity of 17.5 U mg^−1 with Gly-ProAMC as substrate), was obtained as a gilt from Dr. C. H. Williams (Queen's University Belfast, U.K). (DPP-IV was used as the coupling enzyme used in the fluorometric assays).
One unit (U) of enzyme activity was defined as that amount catalysing the formation of one μmol of product in one minute under the standard conditions employed. All incubations in the assays described below were carried out in 20 mM potassium phosphate buffer, pH 7.5, at 37° C.
Kinetic analysis of peptides that are not hydrolysed by TRH-DE. A recently-developed continuous coupled fluorometric assay (23) was used to investigate the ability of those library peptides that were not hydrolysed by TRH-DE to inhibit TRHAMC degradation by TRH-DE. In this assay, TRHAMC is the substrate and dipeptidyl peptidase IV (DPP-IV) (EC 3.4.14.5) is the coupling enzyme. The reaction sequence is:
The reaction was monitored continuously by measuring the increase in AMC fluorescence. A linear progress curve with no discernible lag period was observed when the reaction was monitored over a period of 10 minutes. Nevertheless, data sampling was not commenced until 100 s from the start of the reaction to ensure measurements were taken after a steady state had been reached (see Ref. 23).
In a preliminary experiment, the peptides were screened for their ability to inhibit TRH-DE activity. The initial rate of TRHAMC hydrolysis by TRH-DE was measured by incubating 5 μM TRHAMC with 1.23 μg DPP-IV and 0.32 μg TRH-DE, both in the absence and presence of each library peptide (1 mM final concentration) under standard assay conditions (23). In each case the percentage inhibition (i%) was calculated using the equation i%=100(1-vi/vo), where vi and vo are the initial velocities in the presence and absence of peptide, respectively.
Since these peptides were poor inhibitors they were not examined further. The Ki values for the remainder of the peptides were determined by measuring their effects on TRHAMC degradation by TRH-DE using the continuous assay. Data were collected in duplicate at five different substrate concentrations and at least three different concentrations of each peptide.
Reversibility and time dependence of the inhibition produced by Glp-Gln-ProNH2, Glp-Asn-ProNH2 and Glp-Asn-ProAMC were examined by initially preincubating TRH-DE with each peptide at 37° C. for various periods up to 75 min. To investigate time dependence, the enzyme-peptide solution was subsequently added to the reaction mixture containing TRHAMC, DPP-IV, buffer and peptide, and TRH-DE activity was measured using the continuous assay. The final concentration of Glp-Gln-ProNH2, Glp-Asn-ProNH2 and Glp-Asn-ProAMC used was 400, 160 and 1 μM, respectively. […] TRH-DE activity was not affected by pre-incubation at 37° C.
Fluorescence measurements were made using a Perkin Elmer LS 50B Luminescence Spectrometer fitted with a thernostated cell holder. Wavelengths for excitation and emission were set at 370 nm and 440 nm, respectively, with slit widths of 10 nm and 5 nm, respectively.

T1 sequence (A0A287AP33 1-1066): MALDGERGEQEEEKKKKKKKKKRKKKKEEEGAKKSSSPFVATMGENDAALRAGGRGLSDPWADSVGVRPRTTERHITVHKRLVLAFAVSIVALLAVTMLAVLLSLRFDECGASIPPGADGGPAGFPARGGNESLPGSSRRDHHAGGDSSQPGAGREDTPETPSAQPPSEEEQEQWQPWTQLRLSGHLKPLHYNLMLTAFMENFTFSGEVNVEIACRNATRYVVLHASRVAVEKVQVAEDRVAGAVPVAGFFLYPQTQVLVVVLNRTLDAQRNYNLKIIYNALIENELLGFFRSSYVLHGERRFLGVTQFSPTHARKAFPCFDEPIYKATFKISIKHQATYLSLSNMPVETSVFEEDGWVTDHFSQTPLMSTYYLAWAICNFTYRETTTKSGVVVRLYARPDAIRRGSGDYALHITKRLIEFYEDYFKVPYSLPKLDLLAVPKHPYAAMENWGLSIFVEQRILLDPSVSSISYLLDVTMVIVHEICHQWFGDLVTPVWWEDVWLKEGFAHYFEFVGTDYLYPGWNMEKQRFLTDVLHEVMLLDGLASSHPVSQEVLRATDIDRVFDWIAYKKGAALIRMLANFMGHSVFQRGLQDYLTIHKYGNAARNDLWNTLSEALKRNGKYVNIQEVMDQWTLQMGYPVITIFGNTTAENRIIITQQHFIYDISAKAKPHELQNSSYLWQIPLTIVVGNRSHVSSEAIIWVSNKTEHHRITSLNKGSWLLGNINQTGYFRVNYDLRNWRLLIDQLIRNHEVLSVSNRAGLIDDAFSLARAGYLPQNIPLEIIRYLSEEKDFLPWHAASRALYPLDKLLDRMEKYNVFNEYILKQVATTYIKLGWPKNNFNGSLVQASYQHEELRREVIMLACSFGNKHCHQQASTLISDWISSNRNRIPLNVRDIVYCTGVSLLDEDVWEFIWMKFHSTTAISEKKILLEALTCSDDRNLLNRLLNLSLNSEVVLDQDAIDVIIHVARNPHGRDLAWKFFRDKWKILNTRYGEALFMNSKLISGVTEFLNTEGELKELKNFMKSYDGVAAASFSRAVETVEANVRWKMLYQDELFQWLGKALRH

Structure (SMILES): NC(=O)C[C@H](NC(=O)[C@@H]1CCC(=O)N1)C(=O)N1CCC[C@H]1C(N)=O [Glp-Asn-ProNH2, pyroglutamyl-asparaginyl-prolineamide] ([pGlu]-Asn-Pro-NH2)
- mode of inhibition of TRH-DE (continuous assay, Lineweaver-Burk plot): simple competitive inhibitors
- pKi: 4.76
- pKi (listed as Glp-Asn-Pro-NH2): 4.76
- inhibition at 1000 µM (peptide 1 mM, 5 μM TRHAMC substrate): 97%
- reversibility and time dependence of inhibition (preincubation with TRH-DE up to 75 min at 37° C., Glp-Gln-ProNH2 400, Glp-Asn-ProNH2 160, Glp-Asn-ProAMC 1 μM): fully reversible and not time-dependent
